Laboratory results: patent US10603357B2, “Therapeutic TREM-1 peptides” (Universite de Lorraine, priority 2004, dated 2020)
Marks after values point to notes of the source that are not given here.

Assays:
rats [1] = test: LPS-induced endotoxinemia in rats, haemodynamic and biological measurements; type: in vivo, rat; details: for effect on plasma IL-1β release: LPS 15 mg/kg (FIG. 13B); for Nitrite/nitrate concentrations after LPS administration: LPS 15 mg/kg (FIG. 14); for Aortic blood flow / Heart Rate / Lactate / MAP / Mesenteric blood flow / pH (arterial): LPS-induced endotoxinemia
Experimental: Animals were randomly grouped (n=10-20) and treated with Escherichia coli LPS (0111:B4, Sigma-Aldrich, Lyon, France) i.p. in combination with the TREM-1 or scrambled peptides.
(§1) Immediately after LPS administration as well as 16 hours after CLP, arterial BP (systolic, diastolic, and mean), heart rate, abdominal aortic blood flow, and mesenteric blood flow were recorded using a procedure described elsewhere (see Mansart, A. et al. Shock 19:38-44 (2003)). Briefly, the left carotid artery and the left jugular vein were cannulated with PE-50 tubing. Arterial BP was continuously monitored by a pressure transducer and an amplifier-recorder system (IOX EMKA Technologies, Paris, France). Perivascular probes (Transonic Systems, Ithaca, N.Y.) wrapped up the upper abdominal aorta and mesenteric artery, allowed to monitor their respective flows by means of a flowmeter (Transonic Systems). After the last measurement (4th hour during LPS experiments and 24th hour after CLP), animals were sacrificed by an overdose of sodium thiopental i.v.
(§2) Blood was sequentially withdrawn from the left carotid artery. Arterial lactate concentrations and blood gases analyses were performed on an automatic blood gas analyser (ABL 735, Radiometer, Copenhagen, Denmark). Concentrations of TNF-α and IL-1β in the plasma were determined by an ELISA test (Biosource, Nivelles, Belgium) according to the recommendations of the manufacturer. Plasmatic concentrations of nitrates/nitrites were measured using the Griess reaction (R&D Systems, Abingdon, UK).

rats [2] = test: CLP polymicrobial sepsis model in rats, haemodynamic and biological measurements; type: in vivo, rat; details: for effect on TNF-α production: CLP (FIG. 16); for Aortic blood flow / Bicarbonate / Heart Rate / Lactate / Mesenteric blood flow / pH: CLP polymicrobial sepsis; for decline in arterial pressure over time: H16 to H24 (FIG. 15)
Experimental: The procedure has been described in details elsewhere (see Mansart, A. et al. Shock 19:38-44 (2003)). Briefly, rats (n=6-10 per group) were anesthetized by i.p. administration of ketamine (150 mg/kg). The caecum was exposed through a 3.0-cm abdominal midline incision and subjected to a ligation of the distal half followed by two punctures with a G21 needle. A small amount of stool was expelled from the punctures to ensure […]. The caecum was replaced into the peritoneal cavity and the abdominal incision closed in two layers. After surgery, all rats were injected s.c. with 50 mL/kg of normal saline solution for fluid resuscitation. TREM-1 or scrambled peptides were then administered as above.
as §1, §2

LQVTDSGLYRCVIYHPP [P5]
attenuation of plasma TNF-α production (rats [1]; LPS 15 mg/kg (FIG. 13A)): ~30% | effect on plasma IL-1β release (rats [1]): strongly reduced | Nitrite/nitrate concentrations after LPS administration (rats [1]): remained stable | Aortic blood flow (rats [1]; H0): 48 ± 9 mL/min | Heart Rate (rats [1]; H0): 474 ± 49 bpm | Lactate (rats [1]; H0): 3.4 ± 1.5 mmol/L | MAP (rats [1]; H0): 115 ± 16 mmHg | Mesenteric blood flow (rats [1]; H0): 12.8 ± 6.4 mL/min | pH (arterial) (rats [1]; H0): 7.33 ± 0.04 | Aortic blood flow (rats [1]; H1): 32 ± 8 mL/min | Heart Rate (rats [1]; H1): 498 ± 26 bpm | Lactate (rats [1]; H1): 5.4 ± 1.4 mmol/L | MAP (rats [1]; H1): 99 ± 22 mmHg | Mesenteric blood flow (rats [1]; H1): 11.4 ± 2.7 mL/min | pH (arterial) (rats [1]; H1): 7.28 ± 0.06 | Aortic blood flow (rats [1]; H2): 23 ± 4 ^b mL/min | Heart Rate (rats [1]; H2): 510 ± 42 bpm | Lactate (rats [1]; H2): 5.5 ± 1.6 mmol/L | MAP (rats [1]; H2): 101 ± 18 mmHg | Mesenteric blood flow (rats [1]; H2): 9.2 ± 1.9 mL/min | pH (arterial) (rats [1]; H2): 7.32 ± 0.07 | Aortic blood flow (rats [1]; H3): 20 ± 7 ^b mL/min | Heart Rate (rats [1]; H3): 517 ± 62 bpm | Lactate (rats [1]; H3): 5.9 ± 1.7 ^b mmol/L | MAP (rats [1]; H3): 93 ± 21 ^b mmHg | Mesenteric blood flow (rats [1]; H3): 6.0 ± 0.8 mL/min | pH (arterial) (rats [1]; H3): 7.29 ± 0.11 | Aortic blood flow (rats [1]; H4): 15 ± 6 ^b mL/min | Heart Rate (rats [1]; H4): 510 ± 26 bpm | Lactate (rats [1]; H4): 7.4 ± 1.8 ^b mmol/L | MAP (rats [1]; H4): 89 ± 10 ^b mmHg | Mesenteric blood flow (rats [1]; H4): 5.0 ± 1.0 mL/min | pH (arterial) (rats [1]; H4): 7.28 ± 0.12 ^b | effect on TNF-α production (rats [2]): decrease | Aortic blood flow (rats [2]; H16): 41 ± 14 mL/min | Bicarbonate (rats [2]; H16): 18.6 ± 2.0 mmol/L | Heart Rate (rats [2]; H16): 460 ± 17^b bpm | Lactate (rats [2]; H16): 3.3 ± 0.4^b mmol/L | Mesenteric blood flow (rats [2]; H16): 15.3 ± 3.5^b mL/min | pH (rats [2]; H16): 7.35 ± 0.01^b | Aortic blood flow (rats [2]; H20): 31 ± 5^b mL/min | Bicarbonate (rats [2]; H20): 18.0 ± 0.9^a mmol/L | Heart Rate (rats [2]; H20): 500 ± 17^b bpm | Lactate (rats [2]; H20): 3.6 ± 0.9^b, c mmol/L | Mesenteric blood flow (rats [2]; H20): 11.0 ± 6.9^b, c mL/min | pH (rats [2]; H20): 7.34 ± 0.01^b | Aortic blood flow (rats [2]; H24): 28 ± 8^b mL/min | Bicarbonate (rats [2]; H24): 17.1 ± 0.9^a, c mmol/L | Heart Rate (rats [2]; H24): 510 ± 20 bpm | Lactate (rats [2]; H24): 4.9 ± 1.1^b, c mmol/L | Mesenteric blood flow (rats [2]; H24): 8.5 ± 3.5^b, c mL/min | pH (rats [2]; H24): 7.36 ± 0.01^b, c | decline in arterial pressure over time (rats [2]; CLP): almost totally abolished | plasmatic TNF-α (rats [2]; CLP, by H20 (FIG. 16)): almost undetectable

LVVTQRPFTRPSEVHMGKFTLKH (listed as Mus musculus) [P1]
effect on LPS-induced plasma TNF-α production (rats [1]; LPS 15 mg/kg (FIG. 13A)): no effect | effect on plasma IL-1β release (rats [1]): delayed the IL-1β peak until the third hour after LPS injection, but without attenuation | Nitrite/nitrate concentrations after LPS administration (rats [1]): increased rapidly | Aortic blood flow (rats [1]; H0): 49 ± 11 mL/min | Heart Rate (rats [1]; H0): 464 ± 25 bpm | Lactate (rats [1]; H0): 2.7 ± 0.1 mmol/L | MAP (rats [1]; H0): 116 ± 10 mmHg | Mesenteric blood flow (rats [1]; H0): 12.0 ± 3.7 mL/min | pH (arterial) (rats [1]; H0): 7.32 ± 0.04 | Aortic blood flow (rats [1]; H1): 39 ± 12 ^a mL/min | Heart Rate (rats [1]; H1): 492 ± 26 bpm | Lactate (rats [1]; H1): 4.9 ± 1.1 mmol/L | MAP (rats [1]; H1): 119 ± 14 mmHg | Mesenteric blood flow (rats [1]; H1): 10.5 ± 1.7 mL/min | pH (arterial) (rats [1]; H1): 7.29 ± 0.04 | Aortic blood flow (rats [1]; H2): 26 ± 14 ^a mL/min | Heart Rate (rats [1]; H2): 492 ± 26 bpm | Lactate (rats [1]; H2): 5.0 ± 0.9 mmol/L | MAP (rats [1]; H2): 113 ± 21 mmHg | Mesenteric blood flow (rats [1]; H2): 7.7 ± 2.7 mL/min | pH (arterial) (rats [1]; H2): 7.30 ± 0.01 | Aortic blood flow (rats [1]; H3): 22 ± 8 ^a mL/min | Heart Rate (rats [1]; H3): 480 ± 30 bpm | Lactate (rats [1]; H3): 5.7 ± 0.7 ^a mmol/L | MAP (rats [1]; H3): 97 ± 29 ^a mmHg | Mesenteric blood flow (rats [1]; H3): 5.0 ± 1.0 mL/min | pH (arterial) (rats [1]; H3): 7.26 ± 0.06 | Aortic blood flow (rats [1]; H4): 16 ± 6 ^a mL/min | Heart Rate (rats [1]; H4): 480 ± 20 bpm | Lactate (rats [1]; H4): 7.9 ± 1.7 ^a mmol/L | MAP (rats [1]; H4): 92 ± 7 ^a mmHg | Mesenteric blood flow (rats [1]; H4): 4.8 ± 0.9 mL/min | pH (arterial) (rats [1]; H4): 7.26 ± 0.08 ^a | effect on TNF-α production (rats [2]): decrease | Aortic blood flow (rats [2]; H16): 41 ± 12 mL/min | Bicarbonate (rats [2]; H16): 16.8 ± 4.4 mmol/L | Heart Rate (rats [2]; H16): 462 ± 16^a bpm | Lactate (rats [2]; H16): 4.9 ± 0.4 mmol/L | Mesenteric blood flow (rats [2]; H16): 13.5 ± 7.2 mL/min | pH (rats [2]; H16): 7.32 ± 0.04 | Aortic blood flow (rats [2]; H20): 28 ± 17^a mL/min | Bicarbonate (rats [2]; H20): 16.0 ± 5.4^b mmol/L | Heart Rate (rats [2]; H20): 480 ± 30^a bpm | Lactate (rats [2]; H20): 5.3 ± 1.1^a, c mmol/L | Mesenteric blood flow (rats [2]; H20): 5.3 ± 3.0^c mL/min | pH (rats [2]; H20): 7.31 ± 0.18^a | Aortic blood flow (rats [2]; H24): 22 ± 16^a mL/min | Bicarbonate (rats [2]; H24): 11.2 ± 0.8^c mmol/L | Heart Rate (rats [2]; H24): 420 ± 30 bpm | Lactate (rats [2]; H24): 6.8 ± 0.9^a, c mmol/L | Mesenteric blood flow (rats [2]; H24): 4.5 ± 2.1^c mL/min | pH (rats [2]; H24): 7.24 ± 0.06^a, c | decline in arterial pressure over time (rats [2]; CLP): almost totally abolished
